Columns and labels:
[1] = tested on: A-549 cells; test: Sulforhodamine B (SRB) cell viability assay; type: cell-based; details: 72 h
[2] = tested on: A-375 cells; test: Sulforhodamine B (SRB) cell viability assay; type: cell-based; details: 72 h
[3] = target: bovine serum albumin (BSA) (Bos taurus, UniProt P02769); test: BSA fluorescence quenching; type: binding; parameters: Affinity constant K ± SD: unit not given here; details: for Affinity constant K ± SD: fluorescence quenching, HypSpec2014, 1:1 species assumed
Method: To evaluate the interaction of the compounds, both organic and Cu(II) complexes, with bovine serum albumin (BSA) fluorescence spectra were measured. In a typical fluorescence experiment, to a solution of 1.5 μM of BSA in the same buffer, successive aliquots of a stock solution of each compound in DMSO were added directly to the cuvette (optical path 1.0 cm). The fluorescence emission was recorded between 310 and 600 nm with excitation at 295 nm. The final DMSO % was kept below 2% (v/v). The Stern-Volmer plots were built using the emission at 340 nm and blank samples (in the absence of BSA) with the same concentration of the complexes were recorded and subsequently subtracted from the corresponding emission spectra containing the fluorophore. Moreover, the fluorescence emission intensity was corrected for reabsorption and inner filter effects using UV-Vis absorption data recorded for each sample, since all complexes absorb in the measured wavelength range (19, 20).
The interaction of the organic compounds and Cu(II) complexes with BSA was monitored by studying the quenching of albumin’s fluorescence emission with increasing concentrations of the complexes (25). Overall, the intensity of the Trp emission decreases with the addition of the complexes, except for 8 (see Figs. S19). The Stern-Volmer relationship was used to analyse the fluorescence quenching process:
where I0 and I are the fluorescence intensities in the absence and in the presence of quencher, kq is the bimolecular quenching rate, τ0 is the fluorophore lifetime in the absence of the quencher (6.22 ns) (26) and [Q] is the quencher concentration. […] This linear relationship is obeyed for all complexes except 5, where a downward curvature is observed. This can be an indication of two distinct binding sites, corresponding to two populations of fluorophores, one being accessible and other inaccessible or buried inside the protein. In such cases, the Stern-Volmer relation can be modified to (27):
where ΔI = I0 – I, Ka is the Stern-Volmer constant for the accessible fraction and fa is the fraction of accessible fluorophore. […] As first approximation, the total concentration of quencher was used to check the quenching mechanism. […] As all systems presented high absorbance values in the measured range of wavelengths, no excess of quencher was used and, therefore, 1:1 species will be assumed for these interactions.

[4] = tested on: S. aureus ATCC 25928; test: MIC determination; type: cell-based, Staphylococcus aureus; details: S. aureus ATCC 25928 (sensitive); 18 h
Method: (§1) Wild-type Escherichia coli K-12 AG100 strain [argE3 thi-1 rpsL xyl mtl Δ(gal-uvrB) supE44] expressing the AcrAB TolC efflux pump at its basal level and Klebsiella pneumoniae ATCC 49619 Gram-negative strains were studied in the experiments. Sensitive (ATCC 25928) and the methicillin-resistant (MRSA 272123) subspecies of Staphylococcus aureus were used as Gram-positive strains in the assays.
(§2) Minimum inhibitory concentration (MIC) values of selected compounds were determined in 96-well plates based on the Clinical and Laboratory Standard Institute guidelines (CLSI guidelines). The stock solutions of the compounds were dissolved in DMSO using 1.3 μL of Mueller Hinton Broth, and then two-fold serial dilutions were performed. The starting concentration of the compounds was 100 μM. Then 10^‒4 dilution of an overnight bacterial culture in 100 μL of medium was added to each well, except for the medium control wells.

[5] = tested on: Klebsiella pneumoniae ATCC 49619; test: MIC determination; type: cell-based; details: K. pneumoniae; 18 h
Method: as §1, §2

[6] = tested on: Escherichia coli K-12 AG100; test: MIC determination; type: cell-based; details: E. coli; 18 h
Method: as §1, §2

[7] = tested on: calf thymus DNA (ctDNA); test: ctDNA thermal denaturation; type: binding; details: for ΔTm: equimolar amounts of compound and DNA, HEPES 0.01 M, pH 7.4; for melting temperature Tm of ctDNA with compound: equimolar mixtures (25 µM), 10 mM HEPES pH 7.4, 1.5% DMSO
From the text: Nucleic acids are potential targets for metallodrugs and, consequently, evaluation of the interactions of the compounds with DNA and corresponding binding strength is relevant under the scope of this work. Thermal denaturation is a useful technique to measure the stability of the secondary structure of DNA (29). Under the chosen experimental conditions (HEPES, 0.01 M, pH 7.4), it is possible to follow the denaturation of calf thymus DNA (ctDNA) double strand.

bovine serum albumin (BSA), sequence (P02769 25-607): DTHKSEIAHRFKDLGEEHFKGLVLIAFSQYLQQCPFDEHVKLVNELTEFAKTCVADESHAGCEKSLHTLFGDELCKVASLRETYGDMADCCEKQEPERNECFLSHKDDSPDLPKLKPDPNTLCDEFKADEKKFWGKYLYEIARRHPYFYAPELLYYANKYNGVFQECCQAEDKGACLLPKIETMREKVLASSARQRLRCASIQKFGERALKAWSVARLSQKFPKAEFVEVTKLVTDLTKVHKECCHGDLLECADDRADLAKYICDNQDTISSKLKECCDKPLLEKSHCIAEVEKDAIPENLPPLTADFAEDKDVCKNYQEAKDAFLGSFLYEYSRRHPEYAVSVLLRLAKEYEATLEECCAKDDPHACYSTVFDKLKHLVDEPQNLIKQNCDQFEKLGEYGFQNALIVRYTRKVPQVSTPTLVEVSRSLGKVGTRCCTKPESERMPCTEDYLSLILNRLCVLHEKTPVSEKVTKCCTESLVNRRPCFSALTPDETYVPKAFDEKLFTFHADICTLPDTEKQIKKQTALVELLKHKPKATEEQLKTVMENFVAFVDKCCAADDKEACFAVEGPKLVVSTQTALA

| SMILES | IC50 [1] | IC50 [2] | Affinity constant K ± SD [3] | Stern-Volmer constant for the accessible fraction Ka ([3]; modified Stern-Volmer) | fraction of accessible fluorophore fa ([3]; modified Stern-Volmer) | MIC [4] | MIC [5] | MIC [6] | ΔTm [7] | melting temperature Tm of ctDNA with compound [7] |
| --- | --- | --- | --- | --- | --- | --- | --- | --- | --- | --- |
| COc1ccc(C([O-])=NN=Cc2ccc3cccc([O-])c3n2)cc1.[Cu+2] [Complex 5, [Cu(L^5)]3] | 5.1 ± 0.01 µM | 3.4 ± 0.1 µM | (1.05 ± 0.04) × 10^5 | 2.1e+06 M⁻¹ | 0.24 | 100 µM | > 100 µM | > 100 µM | 17.7 °C | 77.9 ± 1.3 °C |
| [Cu+2].[O-]C(=NN=Cc1ccc2cccc([O-])c2n1)c1ccc(F)cc1 [Complex 3, [Cu(L^3)]3] | 8.9 ± 0.2 µM | 5.1 ± 0.3 µM | (3.4 ± 0.7) × 10^5 |  |  | 100 µM | > 100 µM | > 100 µM | 13.0 °C | 73.2 ± 1.7 °C |
| CC(=O)[O-].O=C(NN=Cc1ccc2cccc([O-])c2n1)c1ccccc1.[Cu+2] [Complex 1, [Cu(HL^1)(AcO)]] | 4.2 ± 0.2 µM | 2.7 ± 0.03 µM | (8.4 ± 6.6) × 10^7 |  |  | 50 µM | > 100 µM | > 100 µM | >25.0 °C |  |

From article PMC10072326, “Promising anticancer agents based on 8-hydroxyquinoline hydrazone copper(II) complexes” (Frontiers in Chemistry, 2023)
